The values below come from patent publication US20250281424A1 (New York Blood Center, Inc, priority 2020, published 2025).

Each structure is given as a SMILES string.

In this experiment the target is T1, human PF4 (Homo sapiens, UniProt P02776).
T1 construct: PF4 is a 70 amino acid, lysine-rich 7.8 kDa platelet-specific protein; made in house; host or cells: Escherichia coli BL21DE3 pLysS (pT7-7) and/or Drosophila S2 cells
T1 sequence (P02776 32-101): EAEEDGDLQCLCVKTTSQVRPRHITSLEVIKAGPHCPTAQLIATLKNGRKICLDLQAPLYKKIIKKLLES
Put plainly: Inhibition of PF4 tetramer formation (BS3 cross-linking, SDS-PAGE). The conditions noted are these: for inhibition at 5 µM: 5 μM inhibitor; for inhibition at 5 µM / inhibition at 10 µM / inhibition at 1 µM / inhibition at 3 µM: read-out: % inhibition of PF4 tetramer formation at single concentration of inhibitor; for inhibition at 10 µM: 10 μM inhibitor (column A); for IC50: read-out: IC50 of PF4 tetramer formation inhibition; for inhibition at 1 µM: 1 μM inhibitor; for inhibition at 3 µM: 3 μM inhibitor (column A). Type of experiment: biochemical. In short, it runs like this: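 Recombinant human wild-type PF4 (E. coli-expressed, heparin-purified), 10 μg/ml in PBS, incubated with compound 15 min at 37° C or 60 min at room temperature, then cross-linked with 0.2 mM BS3 for 30 min at room temperature. Reducing 12% SDS-PAGE; bands quantified as % tetramer, trimer, dimer, monomer versus compound-free control.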

One may read the IC50 as the concentration that inhibits the measured activity by half.

For `O=C(c1ccc2c(c1)C(=O)C(C(=O)NCc1ccccc1)C2=O)c1ccc2c(c1)C(=O)C(C(=O)NCc1ccccc1)C2=O` (centres unmarked) [Example 25, 5,5′-carbonylbis(1,3-dioxo-indan-2-carboxylic acid ((phenyl)methyl)-amide)], the inhibition at 5 µM amounted to 63%, the inhibition at 10 µM amounted to 70% and the IC50 came out at 6.24 µM.

As to `O=C(Cc1ccccc1)C1C(=O)c2ccc(S(=O)(=O)c3ccc4c(c3)C(=O)C(C(=O)Cc3ccccc3)C4=O)cc2C1=O` (centres unmarked) [Example 137, 5-{[1,3-dioxo-2-(2-phenylacetyl)-2,3-dihydro-1H-inden-5-yl]sulfonyl}-2-(2-phenylacetyl)-2,3-dihydro-1H-indene-1,3-dione], the inhibition at 5 µM amounted to 80%, the inhibition at 10 µM turned out to be 85% and the IC50 worked out at 6 µM.

Regarding `CC(C)(C)OC(=O)N1CCC[C@@H]1C(=O)C1C(=O)c2ccc(C(=O)c3ccc4c(c3)C(=O)C(C(=O)[C@H]3CCCN3C(=O)OC(C)(C)C)C4=O)cc2C1=O` (some centres unmarked) [Example 161], the inhibition at 5 µM amounted to 87%, the inhibition at 10 µM is 93% and the IC50 was determined as 1 µM.

In the case of `CC(C)(C)OCC(=O)C1C(=O)c2ccc(C(=O)c3ccc4c(c3)C(=O)C(C(=O)COC(C)(C)C)C4=O)cc2C1=O` (centres unmarked) [Example 235, 2-[2-(tert-butoxy)acetyl]-5-{2-[2-(tert-butoxy)acetyl]-1,3-dioxo-2,3-dihydro-1H-indene-5-carbonyl}-2,3-dihydro-1H-indene-1,3-dione], the inhibition at 1 µM worked out at 11% and the inhibition at 3 µM was determined as 29%.

Turning to `CC(=O)C1C(=O)c2ccc(N(C)S(=O)(=O)c3ccc4c(c3)C(=O)C(C(C)=O)C4=O)cc2C1=O` (centres unmarked) [Example 314, -acetyl-N-(2-acetyl-1,3-dioxo-2,3-dihydro-1H-inden-5-yl)-N-methyl-1,3-dioxo-2,3-dihydro-1H-indene-5-sulfonamide], the inhibition at 1 µM is 9% and the inhibition at 3 µM was found to be 28%.

Take `CC(C)C[C@@H](N)C(=O)C1C(=O)c2ccc(S(=O)(=O)c3ccc4c(c3)C(=O)C(C(=O)[C@H](N)CC(C)C)C4=O)cc2C1=O` (stereo partly drawn) [Example 355, 2-[(2R)-2-amino-4-methylpentanoyl]-5-({2-[(2R)-2-amino-4-methylpentanoyl]-1,3-dioxo-2,3-dihydro-1H-inden-5-yl}sulfonyl)-2,3-dihydro-1H-indene-1,3-dione]: the inhibition at 1 µM turned out to be 23% and the inhibition at 3 µM was 61%.

For the compound `O=C(c1ccnc(-c2ccccc2)c1)C1C(=O)c2ccc(S(=O)(=O)c3ccc4c(c3)C(=O)C(C(=O)c3ccnc(-c5ccccc5)c3)C4=O)cc2C1=O` (centres unmarked) [Example 241, 5-{[1,3-dioxo-2-(2-phenylpyridine-4-carbonyl)-2,3-dihydro-1H-inden-5-yl]sulfonyl}-2-(2-phenylpyridine-4-carbonyl)-2,3-dihydro-1H-indene-1,3-dione], the inhibition at 1 µM is 14% and the inhibition at 3 µM amounted to 29%.

Regarding `CN(CC(=O)C1C(=O)c2ccc(Oc3ccc4c(c3)C(=O)C(C(=O)CN(C)C(=O)OC(C)(C)C)C4=O)cc2C1=O)C(=O)OC(C)(C)C` (centres unmarked) [Example 263, tert-butyl N-[2-(5-{[2-(2-{[(tert-butoxy)carbonyl](methyl)amino}acetyl)-1,3-dioxo-2,3-dihydro-1H-inden-5-yl]oxy}-1,3-dioxo-2,3-dihydro-1H-inden-2-yl)-2-oxoethyl]-N-methylcarbamate], the inhibition at 1 µM came out at 72%, the inhibition at 3 µM turned out to be 69% and the IC50 came to 2.07 µM.

As to `O=C(c1ccc2c(c1)C(=O)C(C(=O)Cn1cnnn1)C2=O)c1ccc2c(c1)C(=O)C(C(=O)Cn1cnnn1)C2=O` (centres unmarked) [Example 168, 5-{1,3-dioxo-2-[2-(1H-1,2,3,4-tetrazol-1-yl)acetyl]-2,3-dihydro-1H-indene-5-carbonyl}-2-[2-(1H-1,2,3,4-tetrazol-1-yl)acetyl]-2,3-dihydro-1H-indene-1,3-dione], the inhibition at 5 µM was determined as 68%, the inhibition at 10 µM was determined as 89% and the IC50 came to 4.3 µM.
